PubChem BioAssay (NCI)
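Assay format: 96-well plates, 48-hour exposure. The concentration for 50% growth inhibition is given as GI50. TGI: total growth inhibition.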

Legend:
Assay in all cases: DTP human tumour cell line panel, 48 h
A498 renal = system: A498 renal
ACHN renal = system: ACHN renal
BT-549 breast = system: BT-549 breast
CAKI-1 renal = system: CAKI-1 renal
CCRF-CEM leukemia = system: CCRF-CEM leukemia
COLO 205 colon = system: COLO 205 colon
DU-145 prostate = system: DU-145 prostate
EKVX NSCLC = system: EKVX NSCLC
HCC-2998 colon = system: HCC-2998 colon
HCT-116 colon = system: HCT-116 colon
HCT-15 colon = system: HCT-15 colon
HL-60(TB) leukemia = system: HL-60(TB) leukemia
HOP-62 NSCLC = system: HOP-62 NSCLC
HOP-92 NSCLC = system: HOP-92 NSCLC
HS 578T breast = system: HS 578T breast
IGROV1 ovarian = system: IGROV1 ovarian
KM12 colon = system: KM12 colon
LOX IMVI melanoma = system: LOX IMVI melanoma
M14 melanoma = system: M14 melanoma
MALME-3M melanoma = system: MALME-3M melanoma
MCF7 breast = system: MCF7 breast
MDA-MB-231 breast = system: MDA-MB-231 breast
MDA-MB-435 = system: MDA-MB-435
MDA-MB-468 breast = system: MDA-MB-468 breast
MOLT-4 leukemia = system: MOLT-4 leukemia
NCI-H226 lung = system: NCI-H226 lung
NCI-H23 lung = system: NCI-H23 lung
NCI-H522 lung = system: NCI-H522 lung
NCI/ADR-RES ovarian = system: NCI/ADR-RES ovarian
OVCAR-3 ovarian = system: OVCAR-3 ovarian
OVCAR-4 ovarian = system: OVCAR-4 ovarian
OVCAR-5 ovarian = system: OVCAR-5 ovarian
OVCAR-8 ovarian = system: OVCAR-8 ovarian
PC-3 prostate = system: PC-3 prostate
RPMI-8226 leukemia = system: RPMI-8226 leukemia
RXF 393 renal = system: RXF 393 renal
SF-268 CNS = system: SF-268 CNS
SF-295 CNS = system: SF-295 CNS
SF-539 CNS = system: SF-539 CNS
SK-MEL-2 melanoma = system: SK-MEL-2 melanoma
SK-MEL-28 melanoma = system: SK-MEL-28 melanoma
SK-MEL-5 melanoma = system: SK-MEL-5 melanoma
SN12C renal = system: SN12C renal
SNB-19 CNS = system: SNB-19 CNS
SNB-75 CNS = system: SNB-75 CNS
SW-620 colon = system: SW-620 colon
T-47D breast = system: T-47D breast
TK-10 renal = system: TK-10 renal
UACC-257 melanoma = system: UACC-257 melanoma
UACC-62 melanoma = system: UACC-62 melanoma
UO-31 renal = system: UO-31 renal

## COc1ccc(-c2nc3cc(C)ccc3n2CC(=O)N=Nc2c(O)[nH]c3ccc(Cl)cc23)cc1
A498 renal
  GI50: 3.63 µM
  TGI: > 100 µM
ACHN renal
  GI50: 2.1 µM
  TGI: 5.67 µM
BT-549 breast
  GI50: 1.97 µM
  TGI: 4.66 µM
CAKI-1 renal
  GI50: 2.35 µM
  TGI: 24.6 µM
CCRF-CEM leukemia
  GI50: 3.07 µM
  TGI: 60.2 µM
COLO 205 colon
  GI50: 3.15 µM
  TGI: 10.2 µM
DU-145 prostate
  GI50: 3.18 µM
  TGI: 16.2 µM
EKVX NSCLC
  GI50: 1.91 µM
  TGI: 5.61 µM
HCC-2998 colon
  GI50: 3.16 µM
  TGI: > 100 µM
HCT-116 colon
  GI50: 1.83 µM
  TGI: 4 µM
HCT-15 colon
  GI50: 3.64 µM
  TGI: > 100 µM
HL-60(TB) leukemia
  GI50: 4.36 µM
  TGI: > 100 µM
HOP-62 NSCLC
  GI50: 2.13 µM
  TGI: 5.97 µM
HOP-92 NSCLC
  GI50: 1.48 µM
  TGI: 4.63 µM
HS 578T breast
  GI50: 1.79 µM
  TGI: 6.03 µM
IGROV1 ovarian
  GI50: 3.22 µM
  TGI: 24.5 µM
KM12 colon
  GI50: 3.01 µM
  TGI: 10 µM
LOX IMVI melanoma
  GI50: 1.78 µM
  TGI: 3.93 µM
M14 melanoma
  GI50: 1.9 µM
  TGI: 4.02 µM
MALME-3M melanoma
  GI50: 2.12 µM
  TGI: 4.38 µM
MCF7 breast
  GI50: 2.69 µM
  TGI: 16.2 µM
MDA-MB-231 breast
  GI50: 1.96 µM
  TGI: 4.8 µM
MDA-MB-435
  GI50: 2.29 µM
  TGI: 6.14 µM
MDA-MB-468 breast
  GI50: 2.29 µM
  TGI: 5.05 µM
MOLT-4 leukemia
  GI50: 2.43 µM
  TGI: > 100 µM
NCI-H226 lung
  GI50: 1.9 µM
  TGI: 5.18 µM
NCI-H23 lung
  GI50: 2.83 µM
  TGI: 11.3 µM
NCI-H522 lung
  GI50: 3.99 µM
  TGI: 22 µM
NCI/ADR-RES ovarian
  GI50: 2.48 µM
  TGI: 7.16 µM
OVCAR-3 ovarian
  GI50: 1.88 µM
  TGI: 3.8 µM
OVCAR-4 ovarian
  GI50: 2.35 µM
  TGI: 6.5 µM
OVCAR-5 ovarian
  GI50: 2.63 µM
  TGI: 10.1 µM
OVCAR-8 ovarian
  GI50: 1.82 µM
  TGI: 3.77 µM
PC-3 prostate
  GI50: 2.38 µM
  TGI: 8.6 µM
RPMI-8226 leukemia
  GI50: 3.01 µM
  TGI: > 100 µM
RXF 393 renal
  GI50: 1.49 µM
  TGI: 3.9 µM
SF-268 CNS
  GI50: 3 µM
  TGI: > 100 µM
SF-295 CNS
  GI50: 2.49 µM
  TGI: 8 µM
SF-539 CNS
  GI50: 1.76 µM
  TGI: 3.41 µM
SK-MEL-2 melanoma
  GI50: 3.25 µM
  TGI: 18.6 µM
SK-MEL-28 melanoma
  GI50: 1.82 µM
  TGI: 3.39 µM
SK-MEL-5 melanoma
  GI50: 2.07 µM
  TGI: 4.9 µM
SN12C renal
  GI50: 2 µM
  TGI: 6.18 µM
SNB-19 CNS
  GI50: 2.73 µM
  TGI: 9.29 µM
SNB-75 CNS
  GI50: 0.532 µM
  TGI: 4.09 µM
SW-620 colon
  GI50: 2.35 µM
  TGI: 6.59 µM
T-47D breast
  GI50: 2.73 µM
  TGI: > 100 µM
TK-10 renal
  GI50: 3.43 µM
  TGI: > 100 µM
UACC-257 melanoma
  GI50: 2.1 µM
  TGI: 4.99 µM
UACC-62 melanoma
  GI50: 1.58 µM
  TGI: 3.4 µM
UO-31 renal
  GI50: 3.81 µM
  TGI: > 100 µM
